Data taken from US9920030B2 (priority 2006, dated 2018).
Where two headings read alike, the source gives them in different places.

How the values were obtained:
Assay type in all cases: in vivo
[1] = test system: Phytophthora infestans (the causal agent of tomato late blight); assay: whole plant or invertebrate; details: for pest or weed control at 40 ppm: Phytophthora infestans, 96 h, read-out: Percent Disease Control, Test C
[2] = test system: Phytophthora infestans (the causal agent of tomato late blight); assay: whole plant or invertebrate; details: for pest or weed control at 40 ppm: Phytophthora infestans, 144 h, read-out: Percent Disease Control, Test B
[3] = test system: Plasmopara vilicola (the causal agent of grape downy mildew); assay: Test A: grape downy mildew, test suspension sprayed on grape seedlings after inoculation, visual disease rating; details: for pest or weed control at 40 ppm: Plasmopara, 144 h, read-out: Percent Disease Control, Test A
How it was run: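 Curative spray: spores applied first, plants kept 24 h in saturated air at 20 °C and dried before treatment, then 5 days at 20 °C plus 24 h saturated. Suspension: acetone (3% of volume) in 1:1 acetone/water, 250 ppm Trem 014, sprayed to run-off (200 ppm ≈ 500 g/ha); visual 0–100 control rating.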

[4] = compounds without asterisk (application rate not given), 100 = 100% disease control, 0 = no control relative to the controls

| SMILES | Percent Disease Control, Test C ([1]; * tested at 40 ppm) [%] | Percent Disease Control, Test B ([2]; * tested at 40 ppm) [%] | Percent Disease Control, Test A ([3]; * tested at 40 ppm) [%] | other results |
| --- | --- | --- | --- | --- |
| COc1cccc(OC)c1C1CC(c2csc(C3CCN(C(=O)Cn4nc(C(F)(F)F)cc4C)CC3)n2)=NO1 (stereo not drawn) [Compound 206] | 99 | 100 | 99 | – |
| Cc1cc(C(F)(F)F)nn1CC(=O)N1CCC(c2nc(CN3C(=O)CCC3=O)cs2)CC1 [Compound 207] | – | – | – | Percent Disease Control, Test C [1, 4]: 0%; Percent Disease Control, Test B [2, 4]: 83%; Percent Disease Control, Test A [3, 4]: 40% |
| Cc1cc(C(F)(F)F)nn1CC(=O)N1CCC(c2nc(CN3C(=O)OC(C)(C)C3=O)cs2)CC1 [Compound 208] | – | – | – | Percent Disease Control, Test C [1, 4]: 0%; Percent Disease Control, Test B [2, 4]: 64%; Percent Disease Control, Test A [3, 4]: 79% |
| Cc1cc(C(F)(F)F)nn1CC(=O)N1CCC(c2nc(C3=NOC4(c5ccccc5)CCCCC34)cs2)CC1 (stereo not drawn) [Compound 209] | 90 | 100 | 99 | – |
| Cc1cc(C(F)(F)F)nn1CC(=O)N1CCC(c2nc(-c3cc(-c4ccccc4C(=O)O)on3)cs2)CC1 [Compound 210] | – | – | – | Percent Disease Control, Test C [1, 4]: 83%; Percent Disease Control, Test B [2, 4]: 100%; Percent Disease Control, Test A [3, 4]: 91% |
| Cc1cc(C(F)(F)F)nn1CC(=O)N1CCC(c2nc(C3=NOC(OC(C)(C)C)C3)cs2)CC1 (stereo not drawn) [Compound 211] | 99 | 100 | 100 | – |
| Cc1cc(C(F)(F)F)nn1CC(=O)N1CCC(c2nc(C3=NOC4(CCN(c5ccccc5)CC4)C3)cs2)CC1 [Compound 212] | 99 | 100 | 98 | – |
| Cc1cc(C(F)(F)F)nn1CC(=O)N1CCC(c2nc(C3=NOC(N4CCOC4=O)C3)cs2)CC1 (stereo not drawn) [Compound 213] | 98 | 100 | 94 | – |
| Cc1cc(C(F)(F)F)nn1CC(=O)N1CCC(c2nc(C3=NO[C@@H](c4c(F)cccc4F)C3)cs2)CC1 [Compound 214, 1-[4-[4-[(5R)-5-(2,6-difluorophenyl)-4,5-dihydro-3-isoxazolyl]-2-thiazolyl]-1-piperidinyl]-2-[5-methyl-3-(trifluoromethyl)-1H-pyrazol-1-yl]ethanone] | – | – | – | pest or weed control at 40 ppm [1]: 99%; pest or weed control at 40 ppm [2]: 100%; pest or weed control at 40 ppm ([3]; * tested at 40 ppm): 100% |
| Cc1cc(C(F)(F)F)nn1CC(=O)N1CCC(c2nc(C3=NOC(N4C(=O)CCC4=O)C3)cs2)CC1 (stereo not drawn) [Compound 215] | 99 | 100 | 99 | – |
| Cc1cc(C(F)(F)F)nn1CC(=O)N1CCC(c2nc(C3=NOC(NC(=O)c4ccccc4C(=O)[O-])C3)cs2)CC1.[Na+] (stereo not drawn) [Compound 216] | 99 | 100 | 100 | – |
| Cc1cc(C(F)(F)F)nn1CC(=O)N1CC=C(c2nc(C3=NOC(c4ccccc4)C3)cs2)CC1 (stereo not drawn) [Compound 217, 1-[4-[4-(4,5-dihydro-5-phenyl-3-isoxazolyl)-2-thiazolyl]-3,6-dihydro-1(2H)-pyridinyl]-2-[5-methyl-3-(trifluoromethyl)-1H-pyrazol-1 yl]ethanone] | – | – | – | pest or weed control at 40 ppm [1]: 99%; pest or weed control at 40 ppm [2]: 100%; pest or weed control at 40 ppm ([3]; * tested at 40 ppm): 95% |
| Cc1cc(C(F)(F)F)nn1CC(=O)N1CCC(c2nc(C3=NOC4(C)C(=O)c5ccccc5C(O)=C34)cs2)CC1 (stereo not drawn) [Compound 218] | 47 | 63 | 73 | – |
| Cc1cc(C(F)(F)F)nn1CC(=O)N1CCC(c2nc(C3=NOC(c4nc5ccccc5n4C)C3)cs2)CC1 (stereo not drawn) [Compound 219] | – | – | – | Percent Disease Control, Test C [1, 4]: 99%; Percent Disease Control, Test B [2, 4]: 100%; Percent Disease Control, Test A [3, 4]: 100% |
| COC(=O)c1ccccc1C1CC(c2csc(C3CCN(C(=O)Cn4nc(C(F)(F)F)cc4C)CC3)n2)=NO1 (stereo not drawn) [Compound 221] | – | – | – | Percent Disease Control, Test C [1, 4]: 99%; Percent Disease Control, Test B [2, 4]: 100%; Percent Disease Control, Test A [3, 4]: 100% |
| Cc1cc(C(F)(F)F)nn1CC(=O)N1CCC(c2nc(C3=NOC(N4C(=O)C(=O)c5ccccc54)C3)cs2)CC1 (stereo not drawn) [Compound 222] | – | – | – | Percent Disease Control, Test C [1, 4]: 100%; Percent Disease Control, Test B [2, 4]: 100%; Percent Disease Control, Test A [3, 4]: 100% |
| Cc1cc(C(F)(F)F)nn1CC(=O)N1CCC(c2nc(C3=NOC(N4C(=O)OC(C)(C)C4=O)C3)cs2)CC1 (stereo not drawn) [Compound 223] | – | – | – | Percent Disease Control, Test C [1, 4]: 100%; Percent Disease Control, Test B [2, 4]: 100%; Percent Disease Control, Test A [3, 4]: 100% |
| C=CN1C(=O)C2ON=C(c3csc(C4CCN(C(=O)Cn5nc(C(F)(F)F)cc5C)CC4)n3)C2C1=O (stereo not drawn) [Compound 224] | – | – | – | Percent Disease Control, Test C [1, 4]: 0%; Percent Disease Control, Test B [2, 4]: 63%; Percent Disease Control, Test A [3, 4]: 0% |
| Cc1cc(C(F)(F)F)nn1CC(=O)N1CCC(c2nc(C3=NOC(C(=O)N4CCOCC4)C3)cs2)CC1 (stereo not drawn) [Compound 226] | – | – | – | Percent Disease Control, Test C [1, 4]: 99%; Percent Disease Control, Test B [2, 4]: 100%; Percent Disease Control, Test A [3, 4]: 83% |

| SMILES | Percent Disease Control, Test C ([1]; * tested at 40 ppm) [%] | Percent Disease Control, Test B ([2]; * tested at 40 ppm) [%] | Percent Disease Control, Test A ([3]; * tested at 40 ppm) [%] | other results |
| --- | --- | --- | --- | --- |
| CCC(=O)N1N=C(c2csc(C3CCN(C(=O)Cn4nc(C(F)(F)F)cc4C)CC3)n2)OC12CCCc1ccccc12 (stereo not drawn) [Compound 227] | – | – | – | Percent Disease Control, Test C [1, 4]: 100%; Percent Disease Control, Test B [2, 4]: 100%; Percent Disease Control, Test A [3, 4]: 100% |
| Cc1cc(C(F)(F)F)nn1CC(=O)N1CCC(c2nc(C3=NN(C(=O)C(C)C)C4(CCCc5ccccc54)O3)cs2)CC1 (stereo not drawn) [Compound 228] | – | – | – | Percent Disease Control, Test C [1, 4]: 100%; Percent Disease Control, Test B [2, 4]: 100%; Percent Disease Control, Test A [3, 4]: 99% |
| O=C(Cn1nc(C(F)(F)F)cc1Cl)N1CCC(c2nc(C3=NO[C@]4(CCc5ccccc54)C3)cs2)CC1 [Compound 232, 2-[5-chloro-3-(trifluoromethyl)-1H-pyrazol-1-yl]-1-[4-[4-[(1R)-2,3-dihydrospiro[1-indene-1,5′(4′H)-isoxazol]-3′-yl]-2-thiazolyl]-1-piperidinyl]ethanone] | – | – | – | Percent Disease Control, Test C ([1]; ** tested at l0 ppm): 100%; Percent Disease Control, Test B ([2]; ** tested at l0 ppm): 100%; Percent Disease Control, Test A ([3]; ** tested at l0 ppm): 100% |
| Cc1cc(C(F)(F)F)nn1CC(=O)N1CCC(c2nc(C3=NOC(N4Cc5ccccc5C4=O)C3)cs2)CC1 (stereo not drawn) [Compound 233] | 100 | 100 | 100 | – |
| Cc1cc(C(F)(F)F)nn1CC(=O)N1CCC(c2nc(C3=NOC(N4C(=O)CN(C)C4=O)C3)cs2)CC1 (stereo not drawn) [Compound 234] | 100 | 100 | 99 | – |
| Cc1cc(C(F)(F)F)nn1CC(=O)N1CCC(c2nc(C3=NOC(N4C(=O)N(C)C(C)(C)C4=O)C3)cs2)CC1 (stereo not drawn) [Compound 235] | 100 | 100 | 99 | – |
| Cc1cc(C(F)(F)F)nn1CC(=O)N1CCC(c2nc(C3=NOC(N4C(=O)c5ccccc5S4(=O)=O)C3)cs2)CC1 (stereo not drawn) [Compound 236] | 100 | 100 | 100 | – |
| CCOC(=O)c1cc(C)nn1CC(=O)N1CCC(c2nc(C3=NOC(c4ccccc4)C3)cs2)CC1 (stereo not drawn) [Compound 238] | 100 | 100 | 100 | – |
| CCOc1cc(C(F)(F)F)nn1CC(=O)N1CCC(c2nc(C3=NOC(c4ccccc4)C3)cs2)CC1 (stereo not drawn) [Compound 241] | 100 | 100 | 100 | – |
| Cc1cc(C(F)(F)F)nn1CC(=O)N1CCC(c2nc(N3CC(c4ccccc4)OC3=O)cs2)CC1 (stereo not drawn) [Compound 242] | 85 | 100 | 99 | – |
| Cc1cc(C(F)(F)F)nn1CC(=O)N1CCC(c2nc(C3=NOC(N4C(=O)CCCC4=O)C3)cs2)CC1 (stereo not drawn) [Compound 243] | – | – | – | Percent Disease Control, Test C ([1]; ** tested at l0 ppm): 100%; Percent Disease Control, Test B ([2]; ** tested at l0 ppm): 100%; Percent Disease Control, Test A ([3]; ** tested at l0 ppm): 99% |
| Cc1cc(C(F)(F)F)nn1CC(=O)N1CCC(c2nc(C3=NOC(n4oc(=O)n(C(C)C)c4=O)C3)cs2)CC1 (stereo not drawn) [Compound 244] | 99 | 100 | 98 | – |
| Cc1cc(C(F)(F)F)nn1CC(=O)N1CCC(c2nc(-c3ccc(F)cc3)cs2)CC1 [Compound 245] | 0 | 74 | 99 | – |
| Cc1cc(C(F)(F)F)nn1CC(=O)N1CCC(c2nc(-c3ccc(C(C)(C)C)cc3)cs2)CC1 [Compound 246] | 40 | 79 | 99 | – |
| Cc1cc(C(F)(F)F)nn1CC(=O)N1CCC(c2nc(-c3ccc(C#N)cc3)cs2)CC1 [Compound 247] | 88 | 100 | 99 | – |
| Cc1cc(C(F)(F)F)nn1CC(=O)N1CCC(c2nc(-c3ccc([N+](=O)[O-])cc3)cs2)CC1 [Compound 248] | 26 | 73 | 90 | – |
| Cc1cc(C(F)(F)F)nn1CC(=O)N1CCC(c2nc(-c3ccc(Br)cc3)cs2)CC1 [Compound 249] | 0 | 64 | 99 | – |
| Cc1cc(C(F)(F)F)nn1CC(=O)N1CCC(c2nc(-c3ccc(I)cc3)cs2)CC1 [Compound 250] | 0 | 58 | 86 | – |
